Results on two compounds are retold here after patent US8871772B2, “Therapeutic methods and compounds” (Ampio Pharmaceuticals, Inc., priority 2008, dated 2014).

One test concerns AU565 cells. Nature of the test: Cytotoxicity on confluent AU565 monolayers, cell titer assay. Type of test: cell-based. As for the experimental part: To determine whether the decrease in cell titer signal caused by Cpd. 5 was due to the inhibition of proliferation or to cytotoxicity, STTG and AU565 cells were seeded at 10,000 cells/well in 96-well plates and grown until a confluent monolayer was obtained. Under these conditions, the cells should no longer proliferate. The culture medium was IMDM supplemented with 10% FBS. After the cells reached confluence, the culture medium was removed by aspiration and replaced with fresh medium containing the test compounds (see Table 2 below). The cell cultures were incubated for an additional 24 hours in the presence of the added compounds and then the cell titer signal was assayed by adding 20 μl Promega cell titer aqueous one reagent to each well. The plates were incubated at 37° C. for an additional 2 hours to allow the colorimetric assay to develop, and the OD of each well was determined in a microplate reader using a 530 nm filter. The OD of wells containing cell titer reagent in culture medium with no cells was subtracted from the OD of all experimental readings.
The % decrease of the total cell titer signal was determined using the following formula. ((Diluent OD−Experimental OD)/Diluent OD))×100. Data are presented in Table 2 as mean % decrease of cell titer signal of three separate experiments, plus or minus standard deviation. In the mean % decrease column, a positive number means a decrease in cell titer signal, while a negative number means an increase. The p values were calculated versus diluent controls.
This experiment was repeated, except using incubations of 18 hours, instead of 24 hours, in the presence of the compounds and 4 hours, instead of 2 hours, for color development.

The test system of the next test is Akt. The experiment in a line: Akt phosphorylation in AU565 breast cancer cells, CASE ELISA (S473). Type of test: cell-based. The following applies: Homo sapiens, IGF-1 stimulated; for inhibition at 50 µM: AU565, 50 μM. As to the method:
Assays were performed to determine the effect of Cpd. 5 (synthesis described in Example 1) on phosphorylation of Akt in the AU565 breast cancer cell line. Akt (or protein kinase B, PKB) is a serine/threonine kinase that promotes cellular survival. Akt is activated in response to many different growth factors, including IGF-1, EGF, bFGF, insulin, interleukin-3 (IL-3), IL-6, heregulin and VEGF. Akt has three isoforms, and activation of all three isoforms is similar in that phosphorylation of two sites is necessary for full activity. Once activated, Akt exerts anti-apoptotic effects through phosphorylation of substrates that directly or indirectly regulate apoptosis. Activation of the phosphatidylinositol 3 kinase (PI3K)/Akt signaling pathway contributes to tumorigenesis in many types of tissues, including breast, ovarian, brain, prostate and lymph tissues.
AU565 cells were grown in 75 cm^2 flasks using Iscove's modified Dulbecco's medium (IMDM; obtained from Lonza) supplemented with 10% fetal bovine serum (FBS, HyClone) and 1% penicillin/streptomycin solution (Lonza). Cells were removed from the flasks using trypsin/EDTA (Lonza) and counted using trypan blue to establish cell counts. […]
Following this incubation, 100 μl of serum-free IMDM containing either 0 or 400 ng/ml insulin-like growth factor-1 (IGF-1) (obtained from Sigma), an Akt phosphorylation promoter, were added, and the plates incubated at 37° C., 5% CO2, for 1 more hour. At the end of this time, the cells were fixed immediately with 4% formaldehyde, refrigerated, and the extent of phosphorylation of Akt determined using the Akt Cellular Activation of Signaling ELISA (CASE™ Kit for AKT […]; SABiosciences, Frederick, Md.) following the manufacturer's protocols. The CASE™ Kit for AKT S473 quantifies the amount of activated (phosphorylated) Akt protein relative to total Akt protein in parallel assays using a conventional ELISA format with colorimetric detection. […] Both primary antibodies are detected using a horseradish peroxidase-labeled secondary antibody. […]
The results were calculated as follows. […]
In general terms: ELISA stands for enzyme-linked immunosorbent assay.

[1] abbreviates: confluent AU565, 50 μM, 18 hours.
[2] abbreviates: confluent AU565, 50 μM, 24 hours.

For orientation: inhibition means the drop in the measured response relative to a control, in per cent. As to `COC(=O)C(c1ccc(-c2ccccc2)cc1)C1NC(=O)CNC1=O` (centres unmarked) [Cpd. 5, biphenyl-4-yl-(3,6-dioxo-piperazin-2-yl)-acetic acid methyl ester], the “MEAN % DECREASE of cell titer signal” value was −5.61% in the test with AU565 cells (confluent AU565, 10 μM, 18 hours); −8.87% with AU565 cells (confluent AU565, 10 μM, 24 hours); −9.73% with AU565 cells (setting [1]); −10.79% in the test on AU565 cells (setting [2]); −10.69% in the test on AU565 cells (confluent AU565, 100 μM, 18 hours); −11.05% in the test on AU565 cells (confluent AU565, 100 μM, 24 hours). For the same compound, in the test on Akt (AU565, 10 μM), the inhibition at 10 µM is 104%. Besides, the inhibition at 50 µM with Akt was determined as 92%.
Take `O=c1cc(N2CCOCC2)oc2c(-c3ccccc3)cccc12` [LY294002, reference compound]: the “MEAN % DECREASE of cell titer signal” value in the test with AU565 cells (setting [1]) stood at 22.25%; in the test with AU565 cells (setting [2]), 2.94%. Besides, the inhibition at 50 µM in the test on Akt worked out at 92.4%.
